According to PubChem BioAssay (NCI):
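In this assay, cells in 96-well plates receive the compound at five concentrations for 48 hours. Endpoints are linearly interpolated between the surrounding concentrations. Abbreviation: GI50, concentration required for 50% inhibition of growth. At the TGI there is no net growth.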

Legend:
Test in all cases: inhibition of tumour cell growth, NCI panel, 48 h
786-0 renal = test system: 786-0 renal
A498 renal = test system: A498 renal
A549 NSCLC = test system: A549 NSCLC
ACHN renal = test system: ACHN renal
BT-549 breast = test system: BT-549 breast
CAKI-1 renal = test system: CAKI-1 renal
CCRF-CEM leukemia = test system: CCRF-CEM leukemia
COLO 205 colon = test system: COLO 205 colon
DU-145 prostate = test system: DU-145 prostate
EKVX NSCLC = test system: EKVX NSCLC
HCC-2998 colon = test system: HCC-2998 colon
HCT-15 colon = test system: HCT-15 colon
HL-60(TB) leukemia = test system: HL-60(TB) leukemia
HOP-62 NSCLC = test system: HOP-62 NSCLC
HOP-92 NSCLC = test system: HOP-92 NSCLC
HS 578T breast = test system: HS 578T breast
HT29 colon = test system: HT29 colon
IGROV1 ovarian = test system: IGROV1 ovarian
K-562 leukemia = test system: K-562 leukemia
KM12 colon = test system: KM12 colon
LOX IMVI melanoma = test system: LOX IMVI melanoma
M14 melanoma = test system: M14 melanoma
MALME-3M melanoma = test system: MALME-3M melanoma
MCF7 breast = test system: MCF7 breast
MDA-MB-231 breast = test system: MDA-MB-231 breast
MDA-MB-435 = test system: MDA-MB-435
MOLT-4 leukemia = test system: MOLT-4 leukemia
NCI-H226 lung = test system: NCI-H226 lung
NCI-H23 lung = test system: NCI-H23 lung
NCI-H460 lung = test system: NCI-H460 lung
NCI-H522 lung = test system: NCI-H522 lung
NCI/ADR-RES ovarian = test system: NCI/ADR-RES ovarian
OVCAR-3 ovarian = test system: OVCAR-3 ovarian
OVCAR-4 ovarian = test system: OVCAR-4 ovarian
OVCAR-5 ovarian = test system: OVCAR-5 ovarian
OVCAR-8 ovarian = test system: OVCAR-8 ovarian
PC-3 prostate = test system: PC-3 prostate
RXF 393 renal = test system: RXF 393 renal
SF-268 CNS = test system: SF-268 CNS
SF-295 CNS = test system: SF-295 CNS
SF-539 CNS = test system: SF-539 CNS
SK-MEL-2 melanoma = test system: SK-MEL-2 melanoma
SK-MEL-28 melanoma = test system: SK-MEL-28 melanoma
SK-MEL-5 melanoma = test system: SK-MEL-5 melanoma
SK-OV-3 ovarian = test system: SK-OV-3 ovarian
SN12C renal = test system: SN12C renal
SNB-19 CNS = test system: SNB-19 CNS
SNB-75 CNS = test system: SNB-75 CNS
SW-620 colon = test system: SW-620 colon
T-47D breast = test system: T-47D breast
TK-10 renal = test system: TK-10 renal
U251 CNS = test system: U251 CNS
UACC-257 melanoma = test system: UACC-257 melanoma
UACC-62 melanoma = test system: UACC-62 melanoma
UO-31 renal = test system: UO-31 renal

With `COc1ccc(CC(C)=C(c2ccc(OCCN3CCCCCC3)cc2)c2ccc(OCCN3CCCCCC3)cc2)cc1` the GI50 (786-0 renal) was 83.8 nM, the TGI (786-0 renal) was 159 nM and the GI50 (A498 renal) was 513 nM. It also gave a TGI (A498 renal) of 1200 nM, a GI50 (A549 NSCLC) of 343 nM and a TGI (A549 NSCLC) of 1020 nM. The GI50 (ACHN renal) was 135 nM, the TGI (ACHN renal) was 374 nM and the GI50 (BT-549 breast) was 681 nM. The TGI (BT-549 breast) was 1370 nM, the GI50 (CAKI-1 renal) was 345 nM and the TGI (CAKI-1 renal) was 930 nM. The GI50 (CCRF-CEM leukemia) was 158 nM, the TGI (CCRF-CEM leukemia) was 609 nM and the GI50 (COLO 205 colon) was 94.4 nM. It also gave a TGI (COLO 205 colon) of 182 nM, a GI50 (DU-145 prostate) of 275 nM and a TGI (DU-145 prostate) of 879 nM. For the same molecule, the GI50 (EKVX NSCLC) was 615 nM, the TGI (EKVX NSCLC) was 1300 nM and the GI50 (HCC-2998 colon) was 88.1 nM. The TGI (HCC-2998 colon) was 182 nM, the GI50 (HCT-15 colon) was 121 nM and the TGI (HCT-15 colon) was 382 nM. For the same molecule, the GI50 (HL-60(TB) leukemia) was 99 nM, the TGI (HL-60(TB) leukemia) was 229 nM and the GI50 (HOP-62 NSCLC) was 626 nM. For the same molecule, the TGI (HOP-62 NSCLC) was 1280 nM, the GI50 (HOP-92 NSCLC) was 254 nM and the TGI (HOP-92 NSCLC) was 986 nM. The GI50 (HS 578T breast) was 175 nM, the TGI (HS 578T breast) was 757 nM and the GI50 (HT29 colon) was 84.3 nM. It also gave a TGI (HT29 colon) of 181 nM, a GI50 (IGROV1 ovarian) of 370 nM and a TGI (IGROV1 ovarian) of 1020 nM. The GI50 (K-562 leukemia) was 98.7 nM, the TGI (K-562 leukemia) was 220 nM and the GI50 (KM12 colon) was 240 nM. The TGI (KM12 colon) was 823 nM, the GI50 (LOX IMVI melanoma) was 87.5 nM and the TGI (LOX IMVI melanoma) was 161 nM. It also gave a GI50 (M14 melanoma) of 88.6 nM, a TGI (M14 melanoma) of 171 nM and a GI50 (MALME-3M melanoma) of 90 nM. For the same molecule, the TGI (MALME-3M melanoma) was 171 nM, the GI50 (MCF7 breast) was 87.2 nM and the TGI (MCF7 breast) was 187 nM. It also gave a GI50 (MDA-MB-231 breast) of 176 nM, a TGI (MDA-MB-231 breast) of 487 nM and a GI50 (MDA-MB-435) of 89.1 nM. For the same molecule, the TGI (MDA-MB-435) was 166 nM, the GI50 (MOLT-4 leukemia) was 133 nM and the TGI (MOLT-4 leukemia) was 406 nM. The GI50 (NCI-H226 lung) was 531 nM, the TGI (NCI-H226 lung) was 1420 nM and the GI50 (NCI-H23 lung) was 709 nM. The TGI (NCI-H23 lung) was 1410 nM, the GI50 (NCI-H460 lung) was 100 nM and the TGI (NCI-H460 lung) was 186 nM. The GI50 (NCI-H522 lung) was 443 nM, the TGI (NCI-H522 lung) was 1200 nM and the GI50 (NCI/ADR-RES ovarian) was 655 nM. The TGI (NCI/ADR-RES ovarian) was 1410 nM, the GI50 (OVCAR-3 ovarian) was 113 nM and the TGI (OVCAR-3 ovarian) was 239 nM. It also gave a GI50 (OVCAR-4 ovarian) of 432 nM, a TGI (OVCAR-4 ovarian) of 1110 nM and a GI50 (OVCAR-5 ovarian) of 631 nM. The TGI (OVCAR-5 ovarian) was 1260 nM, the GI50 (OVCAR-8 ovarian) was 607 nM and the TGI (OVCAR-8 ovarian) was 1450 nM. The GI50 (PC-3 prostate) was 265 nM, the TGI (PC-3 prostate) was 860 nM and the GI50 (RXF 393 renal) was 348 nM. It also gave a TGI (RXF 393 renal) of 1050 nM, a GI50 (SF-268 CNS) of 474 nM and a TGI (SF-268 CNS) of 1150 nM. For the same molecule, the GI50 (SF-295 CNS) was 300 nM, the TGI (SF-295 CNS) was 861 nM and the GI50 (SF-539 CNS) was 97.8 nM. It also gave a TGI (SF-539 CNS) of 194 nM, a GI50 (SK-MEL-2 melanoma) of 756 nM and a TGI (SK-MEL-2 melanoma) of 1500 nM. For the same molecule, the GI50 (SK-MEL-28 melanoma) was 91.1 nM, the TGI (SK-MEL-28 melanoma) was 166 nM and the GI50 (SK-MEL-5 melanoma) was 119 nM. For the same molecule, the TGI (SK-MEL-5 melanoma) was 312 nM, the GI50 (SK-OV-3 ovarian) was 612 nM and the TGI (SK-OV-3 ovarian) was 1240 nM. For the same molecule, the GI50 (SN12C renal) was 657 nM, the TGI (SN12C renal) was 1350 nM and the GI50 (SNB-19 CNS) was 232 nM. It also gave a TGI (SNB-19 CNS) of 817 nM, a GI50 (SNB-75 CNS) of 487 nM and a TGI (SNB-75 CNS) of 1160 nM. It also gave a GI50 (SW-620 colon) of 89 nM, a TGI (SW-620 colon) of 179 nM and a GI50 (T-47D breast) of 219 nM. For the same molecule, the TGI (T-47D breast) was 955 nM, the GI50 (TK-10 renal) was 729 nM and the TGI (TK-10 renal) was 1470 nM. For the same molecule, the GI50 (U251 CNS) was 107 nM, the TGI (U251 CNS) was 259 nM and the GI50 (UACC-257 melanoma) was 108 nM. It also gave a TGI (UACC-257 melanoma) of 262 nM, a GI50 (UACC-62 melanoma) of 98.7 nM and a TGI (UACC-62 melanoma) of 199 nM. For the same molecule, the GI50 (UO-31 renal) was 308 nM and the TGI (UO-31 renal) was 929 nM.
